Each structure is given as a SMILES string. In brackets after ≈: the same amount, converted by molar mass. A value given as a limit tells only on which side of the number the result lay.

Consider `CN(C(=O)COc1nc2ccccc2s1)c1ccccc1`, for which the logP came out at 3.23. Still for that read-out and setting: the figure for `COc1nn(CSP(=S)(OC)OC)c(=O)s1` is 2.2. In the case of `CC(C)(C)[C@H](O)/C(=C\c1ccc(Cl)cc1)n1cncn1`, the solubility (25 °C) came to 28.8 µM (≈ 8.41 µg/mL). `C=CCOC1=NS(=O)(=O)c2ccccc21` came in with a solubility of 672 µM (≈ 150 µg/mL). For `OC(c1ccc(Cl)cc1)(c1ccc(Cl)cc1)C(Cl)(Cl)Cl`, the solubility (25 °C) worked out at 2.77 µM (≈ 1.03 µg/mL). As for `CC1=CC[C@@H]2C[C@@H](C[C@]3(CC[C@H](C)[C@@H](C)O3)O2)OC(=O)[C@@H]2C=C(C)[C@@H](O)[C@H]3OCC(=CC=C[C@H](C)C1)[C@]32O`, the logP came out at 5.3. The compound also yielded a solubility (20 °C) of 1.66 µM (≈ 0.88 µg/mL). On to `CCOC(=O)C1(C)OC(=O)N(c2cc(Cl)cc(Cl)c2)C1=O` (configuration not stated), for which the logP amounted to 3.15. The compound `C[C@H](Oc1ccc(Oc2nc3ccc(Cl)cc3o2)cc1)C(=O)O` showed a solubility (pH 5.1, 20 °C) of 809 µM (≈ 270 µg/mL). `COc1cc(OC)nc(N=C(O)NS(=O)(=O)N(C)S(C)(=O)=O)n1` showed a logP of 1.63.

`Cc1cc(C2CC2)nc(Nc2ccccc2)n1` gave a logP of 4. The compound `COc1cc(OC)n2nc(S(=O)(=O)Nc3c(Cl)ccc(C)c3Cl)nc2n1` returned a log partition coefficient (logP) of 3.08. This compound also displayed a solubility (20 °C) of 478 µM (≈ 200 µg/mL). Where the note is “20 °C”, `Cc1ccc(NC(O)=NC(C)(C)c2ccccc2)cc1` showed a solubility of 4.47 µM (≈ 1.2 µg/mL).

Where the note is “20 °C”, `CC(C)Oc1cccc(NC(=O)c2ccccc2C(F)(F)F)c1` yielded a solubility of 24.4 µM (≈ 7.88 µg/mL). `CCCSP(=S)(OCC)Oc1ccc(SC)cc1` (configuration not stated): the logP was 5.48. For `CCOC(=O)C1CC(=O)C(=C(O)C2CC2)C(=O)C1` (configuration not stated), the logP worked out at 1.6.

Take `O=C(NC(=O)c1c(F)cccc1F)Nc1ccc(OC(F)(F)C(F)OC(F)(F)F)c(Cl)c1` (configuration not stated): the logP amounted to 5.27. For the setting “25 °C”, this compound yielded a solubility of 0.108 µM (≈ 0.0531 µg/mL).

With `CC(C)(C)C(O)(CCc1ccc(Cl)cc1)Cn1cncn1` (configuration not stated), the logP is 3.7. For the compound `COc1cc(OC)nc(N=C(O)NS(=O)(=O)c2c(Cl)nc3ccccn23)n1`, the solubility (pH 5.1, 25 °C) is 16.3 µM (≈ 6.72 µg/mL). For the compound `CON=C(Cc1cccnc1)c1ccc(Cl)cc1Cl`, the logP was determined as 3.7. The compound `CC1=NNC(=O)N(/N=C/c2cccnc2)C1` showed a logP of -0.18. Under “25 °C”, this compound came in with a solubility of 1340 µM (≈ 290 µg/mL).

For the compound `CCOc1nc(C(Cl)(Cl)Cl)ns1`, the lipophilicity (logP) turned out to be 3.37. Further, the solubility (25 °C) turned out to be 473 µM (≈ 117 µg/mL). As for `CO/C=C(/C(=O)OC)c1ccccc1Oc1cc(Oc2ccccc2C#N)ncn1`, the logP is 2.5. Under “20 °C”, this compound gave a solubility of 14.9 µM (≈ 6 µg/mL). On to `CCCCC(O)(Cn1cncn1)c1ccc(Cl)cc1Cl` (configuration not stated), for which the logP stood at 3.9. `CCOP(=S)(OCC)OC(Cl)C(Cl)(Cl)Cl` (configuration not stated): the solubility (20 °C) was under 2.98 µM. As to `CCN(Cc1c(F)cccc1Cl)c1c([N+](=O)[O-])cc(C(F)(F)F)cc1[N+](=O)[O-]`, the logP amounted to 5.45. Still for that read-out and setting: the figure for `CC1(C)CCC(Cc2ccc(Cl)cc2)C1(O)Cn1cncn1` (configuration not stated) is 3.85.

Regarding `Cc1c(COC(=O)[C@@H]2[C@H](/C=C(\Cl)C(F)(F)F)C2(C)C)cccc1-c1ccccc1` (racemic), the solubility turned out to be 0.236 µM (≈ 0.1 µg/mL). `COC(=O)c1c(Cl)c(Cl)c(C(=O)OC)c(Cl)c1Cl` registered a lipophilicity (logP) of 4.28. For the setting “25 °C”, this compound returned a solubility of 1.51 µM (≈ 0.5 µg/mL).

In turn, `CCCCOCCOCCOCc1cc2c(cc1CCC)OCO2` gave a logP of 4.75. For the same compound, the solubility (25 °C) came out at 42.2 µM (≈ 14.3 µg/mL). Turning to `COc1nc(C)nc(NC(=O)NS(=O)(=O)c2ccccc2OCCCl)n1`, for the setting “pH 5.0”, the logD amounted to 1.1. For the same compound, the solubility (pH 5.0, 25 °C) is 79.6 µM (≈ 32 µg/mL). As for `CC(C)=C1OC(=O)N(c2cc(OC3CCCC3)c(Cl)cc2F)C1=O`, the solubility (25 °C) came to 0.611 µM (≈ 0.216 µg/mL). `CC1CCCCN1CCCOC(=O)c1ccc(Cl)c(Cl)c1` (configuration not stated) came in with a logP of 4.31.

As for `CSC(=O)c1cccc2nnsc12`, the logP amounted to 3.1. Where the note is “25 °C”, this compound registered a solubility of 36.6 µM (≈ 7.7 µg/mL). `C#CCOC(=O)[C@@H](C)Oc1ccc(Oc2ncc(Cl)cc2F)cc1` showed a logP of 3.9. On the same count and under the same terms, the figure for `O=C(Nc1ccc(Cl)cc1C(O)c1ccccc1)c1ccncc1` (configuration not stated) is 3.13; for `FC(F)C(F)(F)OCC(Cn1cncn1)c1ccc(Cl)cc1Cl` (configuration not stated) it is 3.56. As to `CC(C)(COCc1cccc(Oc2ccccc2)c1)c1ccc(OC(F)(F)Br)cc1`, the solubility (25 °C) stood at 0.000105 µM (≈ 5e-05 µg/mL). With `O=S(=O)(c1ccc(Cl)cc1)c1cc(Cl)c(Cl)cc1Cl`, the logP came to 4.61. The same compound showed a solubility (20 °C) of 0.219 µM (≈ 0.078 µg/mL).

With `CC1(C)[C@H](C(=O)O[C@H](C#N)c2cccc(Oc3ccccc3)c2)[C@@H]1/C=C\C(=O)OC(C(F)(F)F)C(F)(F)F`, where the note is “25 °C”, the solubility was 0.0369 µM (≈ 0.02 µg/mL). The same measure, in the same setting: the figure for `CNc1cnn(-c2cccc(C(F)(F)F)c2)c(=O)c1Cl` is 111 µM (≈ 33.7 µg/mL); for `CC(C)OC(=O)C(C(=O)OC(C)C)=C1SCCS1` it is 175 µM (≈ 50.9 µg/mL). Consider `COCc1cnc(C2=NC(C)(C(C)C)C(=O)N2)c(C(=O)O)c1` (configuration not stated), for which the logP was found to be 0.73. `CC[C@H]1O[C@]2(CC[C@@H]1C)C[C@@H]1C[C@@H](CC=C(C)C[C@@H](C)C=CC=C3CO[C@@H]4[C@H](O)C(C)=C[C@@H](C(=O)O1)[C@]34O)O2` came in with a log partition coefficient (logP) of 5.9. Under “20 °C”, this compound had a solubility of 13.3 µM (≈ 7.2 µg/mL). `COc1cc(OC)nc(N=C(O)NS(=O)(=O)Nc2ccccc2C(=O)C2CC2)n1` returned a logP of 2.05. `Fc1cccc(F)c1-c1nnc(-c2ccccc2Cl)nn1` had a logP of 3.3.

Values taken from the OPERA property sets (Mansouri et al. 2018).
